In PubChem BioAssay (NCI):
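Protocol summary: plate cells (96-well), add compound at 5 concentrations, incubate 48 h, interpolate endpoints linearly. TGI marks complete inhibition of growth.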

What was measured:
Experiment in all cases: growth of human tumour cells (NCI), 48 h
SNB-19 CNS = system: SNB-19 CNS
UO-31 renal = system: UO-31 renal
SF-268 CNS = system: SF-268 CNS
NCI/ADR-RES ovarian = system: NCI/ADR-RES ovarian
SK-OV-3 ovarian = system: SK-OV-3 ovarian
HCT-15 colon = system: HCT-15 colon
PC-3 prostate = system: PC-3 prostate
RPMI-8226 leukemia = system: RPMI-8226 leukemia
OVCAR-8 ovarian = system: OVCAR-8 ovarian
CCRF-CEM leukemia = system: CCRF-CEM leukemia
HL-60(TB) leukemia = system: HL-60(TB) leukemia
IGROV1 ovarian = system: IGROV1 ovarian
A549 NSCLC = system: A549 NSCLC
HCT-116 colon = system: HCT-116 colon
MCF7 breast = system: MCF7 breast
TK-10 renal = system: TK-10 renal
MALME-3M melanoma = system: MALME-3M melanoma
T-47D breast = system: T-47D breast
LOX IMVI melanoma = system: LOX IMVI melanoma
COLO 205 colon = system: COLO 205 colon
HT29 colon = system: HT29 colon
EKVX NSCLC = system: EKVX NSCLC
DU-145 prostate = system: DU-145 prostate
KM12 colon = system: KM12 colon
OVCAR-3 ovarian = system: OVCAR-3 ovarian
SK-MEL-28 melanoma = system: SK-MEL-28 melanoma
RXF 393 renal = system: RXF 393 renal
MDA-N = system: MDA-N
OVCAR-4 ovarian = system: OVCAR-4 ovarian
SK-MEL-5 melanoma = system: SK-MEL-5 melanoma
MOLT-4 leukemia = system: MOLT-4 leukemia
K-562 leukemia = system: K-562 leukemia
786-0 renal = system: 786-0 renal
HS 578T breast = system: HS 578T breast
HCC-2998 colon = system: HCC-2998 colon
ACHN renal = system: ACHN renal
M14 melanoma = system: M14 melanoma
SK-MEL-2 melanoma = system: SK-MEL-2 melanoma
NCI-H460 lung = system: NCI-H460 lung
SR leukemia = system: SR leukemia
OVCAR-5 ovarian = system: OVCAR-5 ovarian
NCI-H226 lung = system: NCI-H226 lung
A498 renal = system: A498 renal
HOP-92 NSCLC = system: HOP-92 NSCLC
NCI-H522 lung = system: NCI-H522 lung
U251 CNS = system: U251 CNS
SN12C renal = system: SN12C renal
UACC-62 melanoma = system: UACC-62 melanoma
SW-620 colon = system: SW-620 colon
BT-549 breast = system: BT-549 breast
HOP-62 NSCLC = system: HOP-62 NSCLC
UACC-257 melanoma = system: UACC-257 melanoma
SF-539 CNS = system: SF-539 CNS
NCI-H23 lung = system: NCI-H23 lung
CAKI-1 renal = system: CAKI-1 renal
SNB-75 CNS = system: SNB-75 CNS
SF-295 CNS = system: SF-295 CNS
MDA-MB-231 breast = system: MDA-MB-231 breast
MDA-MB-435 = system: MDA-MB-435
KM20L2 colon = system: KM20L2 colon
DMS 114 small cell lung = system: DMS 114 small cell lung
SNB-78 CNS = system: SNB-78 CNS
DMS 273 small cell lung = system: DMS 273 small cell lung
RXF-631 renal = system: RXF-631 renal
M19-MEL melanoma = system: M19-MEL melanoma

## OC(c1cc(C(F)(F)F)nc2c(Cl)cc(Cl)cc12)C1CCCCN1 (configuration not stated)
SNB-19 CNS
  TGI: > 52.3 µM
UO-31 renal
  TGI: 3.22 µM
SF-268 CNS
  TGI: > 40.7 µM
NCI/ADR-RES ovarian
  TGI: 30.2 µM
SK-OV-3 ovarian
  TGI: 25.2 µM
HCT-15 colon
  TGI: 27.4 µM
PC-3 prostate
  TGI: > 43.1 µM
RPMI-8226 leukemia
  TGI: 9.19 µM
OVCAR-8 ovarian
  TGI: 32.5 µM
CCRF-CEM leukemia
  TGI: 4.08 µM
HL-60(TB) leukemia
  TGI: 17.7 µM
IGROV1 ovarian
  TGI: 18.2 µM
A549 NSCLC
  TGI: > 52.2 µM
HCT-116 colon
  TGI: > 35.9 µM
MCF7 breast
  TGI: > 25.8 µM
TK-10 renal
  TGI: > 32.8 µM
MALME-3M melanoma
  TGI: > 36.9 µM
T-47D breast
  TGI: 19 µM
LOX IMVI melanoma
  TGI: 14.8 µM
COLO 205 colon
  TGI: 9.29 µM
HT29 colon
  TGI: > 38.9 µM
EKVX NSCLC
  TGI: > 100 µM
DU-145 prostate
  TGI: 20 µM
KM12 colon
  TGI: 19.3 µM
OVCAR-3 ovarian
  TGI: 12.8 µM
SK-MEL-28 melanoma
  TGI: 29.5 µM
RXF 393 renal
  TGI: 18.8 µM
MDA-N
  TGI: > 100 µM
OVCAR-4 ovarian
  TGI: 18.3 µM
SK-MEL-5 melanoma
  TGI: 22.6 µM
MOLT-4 leukemia
  TGI: 22.9 µM
K-562 leukemia
  TGI: > 34.1 µM
786-0 renal
  TGI: > 38.1 µM
HS 578T breast
  TGI: > 48.4 µM
HCC-2998 colon
  TGI: > 100 µM
ACHN renal
  TGI: > 43.7 µM
M14 melanoma
  TGI: > 44 µM
SK-MEL-2 melanoma
  TGI: > 43.8 µM
NCI-H460 lung
  TGI: > 26.7 µM
SR leukemia
  TGI: 5.32 µM
OVCAR-5 ovarian
  TGI: > 50.4 µM
NCI-H226 lung
  TGI: 35.1 µM
A498 renal
  TGI: > 51.4 µM
HOP-92 NSCLC
  TGI: 21.9 µM
NCI-H522 lung
  TGI: > 21 µM
U251 CNS
  TGI: > 48.3 µM
SN12C renal
  TGI: > 39.6 µM
UACC-62 melanoma
  TGI: > 47.7 µM
SW-620 colon
  TGI: 19.2 µM
BT-549 breast
  TGI: 28.2 µM
HOP-62 NSCLC
  TGI: 18.5 µM
UACC-257 melanoma
  TGI: > 38.8 µM
SF-539 CNS
  TGI: 29.9 µM
NCI-H23 lung
  TGI: 23.8 µM
CAKI-1 renal
  TGI: 21.2 µM
SNB-75 CNS
  TGI: 24.4 µM
SF-295 CNS
  TGI: 25.4 µM
MDA-MB-231 breast
  TGI: > 44.8 µM
MDA-MB-435
  TGI: 18.4 µM

## COc1ccccc1-c1csc(CCC(N)C(=O)O)n1 (configuration not stated)
SNB-19 CNS
  TGI: > 100 µM
UO-31 renal
  TGI: > 100 µM
SK-OV-3 ovarian
  TGI: > 100 µM
OVCAR-8 ovarian
  TGI: > 100 µM
CCRF-CEM leukemia
  TGI: > 100 µM
HL-60(TB) leukemia
  TGI: > 100 µM
IGROV1 ovarian
  TGI: > 100 µM
A549 NSCLC
  TGI: > 100 µM
HCT-116 colon
  TGI: > 100 µM
TK-10 renal
  TGI: 75.4 µM
KM20L2 colon
  TGI: > 100 µM
HT29 colon
  TGI: > 100 µM
EKVX NSCLC
  TGI: > 100 µM
KM12 colon
  TGI: > 100 µM
DMS 114 small cell lung
  TGI: > 100 µM
SK-MEL-28 melanoma
  TGI: > 100 µM
RXF 393 renal
  TGI: > 100 µM
MOLT-4 leukemia
  TGI: > 100 µM
SNB-78 CNS
  TGI: > 100 µM
ACHN renal
  TGI: > 100 µM
DMS 273 small cell lung
  TGI: > 100 µM
M14 melanoma
  TGI: > 100 µM
NCI-H460 lung
  TGI: > 100 µM
SR leukemia
  TGI: > 100 µM
OVCAR-5 ovarian
  TGI: > 100 µM
RXF-631 renal
  TGI: > 100 µM
A498 renal
  TGI: > 100 µM
HOP-92 NSCLC
  TGI: > 100 µM
NCI-H522 lung
  TGI: > 100 µM
U251 CNS
  TGI: > 100 µM
UACC-62 melanoma
  TGI: > 100 µM
HOP-62 NSCLC
  TGI: > 100 µM
UACC-257 melanoma
  TGI: > 100 µM
M19-MEL melanoma
  TGI: > 100 µM
NCI-H23 lung
  TGI: > 100 µM
SF-295 CNS
  TGI: > 100 µM

## C[C@]12CCC(=O)C=C1C[C@@H](O)[C@@H]1[C@@H]2CC[C@@]2(C)[C@H]1CC[C@]2(C)O
SNB-19 CNS
  TGI: > 100 µM
UO-31 renal
  TGI: > 100 µM
SF-268 CNS
  TGI: > 100 µM
NCI/ADR-RES ovarian
  TGI: > 100 µM
SK-OV-3 ovarian
  TGI: > 100 µM
HCT-15 colon
  TGI: > 100 µM
PC-3 prostate
  TGI: > 100 µM
RPMI-8226 leukemia
  TGI: > 100 µM
OVCAR-8 ovarian
  TGI: > 100 µM
CCRF-CEM leukemia
  TGI: > 100 µM
HL-60(TB) leukemia
  TGI: > 100 µM
IGROV1 ovarian
  TGI: > 100 µM
A549 NSCLC
  TGI: > 100 µM
HCT-116 colon
  TGI: > 100 µM
MCF7 breast
  TGI: > 100 µM
TK-10 renal
  TGI: > 100 µM
MALME-3M melanoma
  TGI: > 100 µM
T-47D breast
  TGI: > 100 µM
LOX IMVI melanoma
  TGI: > 100 µM
COLO 205 colon
  TGI: > 100 µM
HT29 colon
  TGI: > 100 µM
EKVX NSCLC
  TGI: > 100 µM
DU-145 prostate
  TGI: > 100 µM
KM12 colon
  TGI: > 100 µM
OVCAR-3 ovarian
  TGI: > 100 µM
SK-MEL-28 melanoma
  TGI: > 100 µM
RXF 393 renal
  TGI: > 100 µM
MDA-N
  TGI: > 100 µM
OVCAR-4 ovarian
  TGI: > 100 µM
SK-MEL-5 melanoma
  TGI: > 100 µM
K-562 leukemia
  TGI: > 100 µM
786-0 renal
  TGI: > 100 µM
HS 578T breast
  TGI: > 100 µM
HCC-2998 colon
  TGI: > 100 µM
ACHN renal
  TGI: > 100 µM
M14 melanoma
  TGI: > 100 µM
SK-MEL-2 melanoma
  TGI: > 100 µM
NCI-H460 lung
  TGI: > 100 µM
SR leukemia
  TGI: > 100 µM
OVCAR-5 ovarian
  TGI: > 100 µM
NCI-H226 lung
  TGI: > 100 µM
A498 renal
  TGI: > 100 µM
HOP-92 NSCLC
  TGI: > 100 µM
NCI-H522 lung
  TGI: > 100 µM
U251 CNS
  TGI: > 100 µM
SN12C renal
  TGI: > 100 µM
UACC-62 melanoma
  TGI: > 100 µM
SW-620 colon
  TGI: > 100 µM
BT-549 breast
  TGI: > 100 µM
HOP-62 NSCLC
  TGI: > 100 µM
UACC-257 melanoma
  TGI: > 100 µM
NCI-H23 lung
  TGI: > 100 µM
CAKI-1 renal
  TGI: > 100 µM
SNB-75 CNS
  TGI: > 100 µM
SF-295 CNS
  TGI: > 100 µM
MDA-MB-231 breast
  TGI: > 100 µM
MDA-MB-435
  TGI: > 100 µM
